From patent US7935722B2 (Eli Lilly and Company, priority 2005, dated 2011) come the findings set out here.

Where two headings read alike, the source gives them in different places.

Test [1] has as its target T1, human AR (androgen receptor) (Homo sapiens, UniProt P10275).
T1 construct: expressed in transfected cells; host or cells: 293 cells (293-AR lysate)
T1 sequence (P10275 1-920): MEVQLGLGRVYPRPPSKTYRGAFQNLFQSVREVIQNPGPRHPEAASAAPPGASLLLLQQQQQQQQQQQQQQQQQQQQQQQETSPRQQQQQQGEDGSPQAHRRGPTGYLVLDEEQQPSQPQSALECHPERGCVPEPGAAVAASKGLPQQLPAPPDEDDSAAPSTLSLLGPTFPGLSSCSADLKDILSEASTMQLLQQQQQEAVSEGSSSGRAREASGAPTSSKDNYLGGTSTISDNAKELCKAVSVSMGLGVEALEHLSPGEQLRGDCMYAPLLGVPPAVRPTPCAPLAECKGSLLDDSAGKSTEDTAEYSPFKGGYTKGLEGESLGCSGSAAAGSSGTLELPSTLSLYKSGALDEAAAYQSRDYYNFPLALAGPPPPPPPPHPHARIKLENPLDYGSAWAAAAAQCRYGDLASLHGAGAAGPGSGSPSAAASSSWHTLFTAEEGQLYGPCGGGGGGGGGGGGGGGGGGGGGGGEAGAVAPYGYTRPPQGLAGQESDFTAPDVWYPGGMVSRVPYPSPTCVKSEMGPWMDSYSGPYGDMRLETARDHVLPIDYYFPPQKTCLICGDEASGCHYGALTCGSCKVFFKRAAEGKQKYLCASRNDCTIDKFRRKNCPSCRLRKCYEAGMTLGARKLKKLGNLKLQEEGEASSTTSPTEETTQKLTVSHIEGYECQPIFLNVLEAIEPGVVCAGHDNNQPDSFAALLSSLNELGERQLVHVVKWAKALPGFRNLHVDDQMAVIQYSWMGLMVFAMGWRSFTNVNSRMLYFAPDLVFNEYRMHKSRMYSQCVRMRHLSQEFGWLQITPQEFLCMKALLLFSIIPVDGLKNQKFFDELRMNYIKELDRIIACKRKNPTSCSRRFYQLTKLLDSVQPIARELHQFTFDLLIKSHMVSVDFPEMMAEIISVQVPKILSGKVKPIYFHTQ
Put plainly: Steroid hormone nuclear receptor binding assay, AR binding. In outline: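 Competition binding with lysates of 293 cells overexpressing human AR, [3H]-methyltrienolone tracer, compounds from about 0.01 nM to 10 μM, overnight at 4 °C; non-specific binding set with 500 nM methyltrienolone. Bound tracer counted by scintillation after charcoal-dextran separation; IC50 converted to Ki by Cheng-Prusoff using Kd from saturation binding.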

For test [2], the target named is T2, human androgen receptor (AR) (Homo sapiens, UniProt P10275).
T2 construct: expressed in transfected cells; host or cells: mouse myoblast C2C12 cells, transiently co-transfected
T2 sequence (P10275 1-920): T1 sequence (P10275 1-920)
Put plainly: C2C12 AR/ARE reporter assay. The class given is cell-based. Summed up: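 Mouse C2C12 myoblasts co-transfected with AR/ARE reporter were plated in charcoal-stripped serum and treated for 48 h with compound from about 0.01 nM to 10 μM. Luciferase activity gave EC50 by 4-parameter logistic fit. Efficacy is expressed as % of maximal stimulation by 10 nM methyltrienolone.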
On the technique in general: A reporter such as luciferase makes a cellular process visible.

[3] abbreviates: C2C12, read-out: C2C12 % Efficacy.
Where [4] appears, read: average of n trials, read-out: AR binding Ki.
Setting [5] is: C2C12 AR/ARE reporter assay, average of n trials, read-out: C2C12 % Efficacy.
The mark [6] stands for this setting: C2C12 AR/ARE reporter assay, average of n trials, read-out: C2C12 EC50.

As usually defined, the Ki is a dissociation constant, usually derived from enzyme kinetics or from competition with a known ligand. For orientation: EC50 means the midpoint of the concentration-response curve. The compound `CC(C)C(=O)NC1CCc2c(c3cc(Br)ccc3n2Cc2cccc(F)c2)C1` (stereo not drawn) [Example 35, N-[6-bromo-9-(3-fluoro-benzyl)-2,3,4,9-tetrahydro-1H-carbazol-3-yl]-isobutyramide] gave a Ki in test [1] of 2.6 nM. Further, the midpoint of the response in test [2], the EC50, lay at 2.3 nM. In test [2] (setting [3]), the Emax stood at 74.1%.

The compound `CC(C)C(=O)NC1CCc2c(c3cc(Br)cc(F)c3n2Cc2cccc(F)c2)C1` (stereo not drawn) [Example 120, N-[6-Bromo-8-fluoro-9-(3-fluoro-benzyl)-2,3,4,9-tetrahydro-1H-carbazol-3-yl]-isobutyramide] showed a Ki in test [1] of 7 nM. In addition, the midpoint of the response in test [2], the EC50, lay at 51.4 nM. Further, the Emax in test [2] (setting [3]) was 101%.

With `CC(=O)c1ccc2c(c1)c1c(n2Cc2cccc(F)c2)CC[C@@H](NC(=O)C(C)C)C1` [Example 191, (R)-N-[6-Acetyl-9-(3-fluoro-benzyl)-2,3,4,9-tetrahydro-1H-carbazol-3-yl]-isobutyramide], the affinity in test [1] corresponds to a Ki of 3.3 nM. Also, the EC50 in test [2] stood at 1.2 nM. In test [2] (setting [3]), the Emax was 91.2%.

On to `CC[C@@H](C)C(=O)NC1CCc2c(c3cc(Br)ccc3n2Cc2cccc(F)c2)C1` (stereo partly drawn) [Example 171], for which the Ki in test [1] (setting [4]) came to 8.2 nM. For the same compound, the Emax in test [2] (setting [5]) stood at 63.5%. Besides, the EC50 in test [2] (setting [6]) worked out at 411 nM.

In turn, `CC(C)C(=O)NC1CCc2c(c3cc(-c4cncnc4)ccc3n2Cc2cccc(F)c2)C1` (stereo not drawn) [Example 137] displayed a Ki in test [1] of 16.2 nM. The compound further came in with an EC50 in test [2] of 17.5 nM. For the same compound, in test [2] (setting [3]), the Emax is 79.4%.

`COc1ccc2c(c1)c1c(n2Cc2cccnc2)CCC(NC(=O)C(C)C)C1` (stereo not drawn) [Example 144]: in test [1], the Ki was 737 nM. The compound further showed an EC50 in test [2] of 275 nM. Besides, in test [2] (setting [3]), the Emax came out at 41.4%.

The compound `Cc1nc(Cn2c3c(c4cc(C=O)ccc42)C[C@H](NC(=O)C(C)C)CC3)cs1` [Example 211, (R)-N-[6-Formyl-9-(2-methyl-thiazol-4-ylmethyl)-2,3,4,9-tetrahydro-1H-carbazol-3-yl]-isobutyramide] gave a Ki in test [1] of 43.7 nM. For the same compound, the concentration for a half-maximal effect (EC50) in test [2] came out at 86.7 nM. Also, the Emax in test [2] (setting [3]) is 88.4%.

`CC(C)C(=O)N[C@@H]1CCc2c(c3cc(C#N)ccc3n2Cc2ccccc2N)C1` (single isomer, unassigned) [Example 110, R-N-[9-(2-Amino-benzyl)-6-cyano-2,3,4,9-tetrahydro-1H-carbazol-3-yl]-isobutyramide] yielded an inhibitory constant (Ki) in test [1] of 4.8 nM. Also, the EC50 in test [2] came to 1.8 nM. The Emax in test [2] (setting [3]) stood at 110%.

`CC(C)C(=O)NC1CCc2c(c3c(Cl)c(C#N)ccc3n2Cc2cccc(F)c2)C1` (stereo not drawn) [Example 117, N-[5-Chloro-6-cyano-9-(3-fluoro-benzyl)-2,3,4,9-tetrahydro-1H-carbazol-3-yl]-isobutyramide]: the affinity in test [1], expressed as Ki, was 4.5 nM. In addition, in test [2], the concentration for a half-maximal effect (EC50) came out at 12 nM. Further, in test [2] (setting [3]), the Emax amounted to 76.7%.

For `Cc1nc(Cn2c3c(c4cc(C#N)ccc42)CC(NC(=O)C(C)C)CC3)cs1` (stereo not drawn) [Example 150, N-[6-Cyano-9-(2-methyl-thiazol-4-ylmethyl)-2,3,4,9-tetrahydro-1H-carbazol-3-yl]-isobutyramide], the affinity in test [1] corresponds to a Ki of 19.6 nM. The compound also showed a concentration for a half-maximal effect (EC50) in test [2] of 98.8 nM. The Emax in test [2] (setting [3]) came out at 91.3%.

`CC(C)C(=O)NC1CCc2c(c3cc(C#N)ccc3n2Cc2ccccn2)C1` (stereo not drawn) [Example 146] returned a Ki in test [1] of 12.7 nM. This compound gave an EC50 in test [2] of 15.5 nM. In addition, the Emax in test [2] (setting [3]) was determined as 86.8%.

The compound `CN(C)S(=O)(=O)NC1CCc2c(c3cc(C#N)ccc3n2Cc2cccc(F)c2)C1` (stereo not drawn) [Example 213, N-[6-Cyano-9-(3-fluoro-benzyl)-2,3,4,9-tetrahydro-1H-carbazol-3-yl]-N′,N′-dimethylmethanesulfamide] showed a Ki in test [1] of 3.2 nM. Besides, a half-maximal effect in test [2] (EC50) was put at 40.2 nM. For the same compound, the Emax in test [2] (setting [3]) is 95.4%.

As for `CC(C)C(=O)N[C@@H]1CCc2c(c3cc(C#N)ccc3n2Cc2cccc(F)n2)C1` [Example 183, (R)-N-[6-Cyano-9-(6-fluoro-pyridin-2-ylmethyl)-2,3,4,9-tetrahydro-1H-carbazol-3-yl]-isobutyramide], the Ki in test [1] (setting [4]) came to 4.3 nM. Further, in test [2] (setting [5]), the Emax was 95.3%. Also, the concentration for a half-maximal effect (EC50) in test [2] (setting [6]) was determined as 0.7 nM.

With `CC(C)C(=O)NC1CCc2c(c3cc(C(F)F)ccc3n2Cc2cccc(F)c2)C1` (stereo not drawn) [Example 198, N-[6-Difluoromethyl-9-(3-fluoro-benzyl)-2,3,4,9-tetrahydro-1H-carbazol-3-yl]-isobutyramide], in test [1] (setting [4]), the inhibition constant (Ki) was determined as 3.2 nM. Also, in test [2] (setting [5]), the Emax turned out to be 102%. In test [2] (setting [6]), the EC50 stood at 11 nM.

In test [1], `CC(C)C(=O)N[C@@H]1CCc2c(c3cc(-c4nnc(N)s4)ccc3n2Cc2cccc(F)c2)C1` [Example 126, (R)-N-[6-(5-Amino[1,3,4]thiadiazol-2-yl)-9-(3-fluorobenzyl)-2,3,4,9-tetrahydro-1H-carbazol-3-yl]isobutyramide] returned a Ki of 19 nM. In test [2], this compound showed a concentration giving a half-maximal response (EC50) of 31.3 nM. Besides, the Emax in test [2] (setting [3]) turned out to be 87%.

With `COc1ccc2c(c1)c1c(n2Cc2cccc(F)c2)CCC(NC(=O)C(C)C)C1` (stereo not drawn) [Example 79, N-[9-(3-fluoro-benzyl)-methoxy-2,3,4,9-tetrahydro-1H-carbazol-3-yl]-isobutyramide], the Ki in test [1] (setting [4]) is 28.2 nM. Besides, in test [2] (C2C12 AR/ARE reporter assay, average of n trials), the “C2C12 % Efficacy” value is 85.7%. Also, the half-maximal effective concentration (EC50) in test [2] (setting [6]) turned out to be 16.4 nM.

As for `CC(C)C(=O)NC1CCc2c(c3cc(Cl)ccc3n2Cc2ccccc2N)C1` (stereo not drawn) [Example 106, N-[9-(2-Amino-benzyl)-6-chloro2,3,4,9-tetrahydro-1H-carbazol-3-yl]-isobutyramide], in test [1] (setting [4]), the inhibition constant Ki came to 8.2 nM. Further, the Emax in test [2] (setting [5]) is 82.1%. In addition, in test [2] (setting [6]), the 50% effective concentration (EC50) was determined as 2.3 nM.

In the case of `Cc1ncc(-c2ccc3c(c2)c2c(n3Cc3cccc(F)c3)CCC(NC(=O)C(C)C)C2)cn1` (stereo not drawn) [Example 136], the affinity in test [1] corresponds to a Ki of 13.8 nM. In addition, a half-maximal effect in test [2] (EC50) was put at 0.7 nM. Moreover, the Emax in test [2] (setting [3]) amounted to 90.4%.

The compound `CC(C)C(=O)NC1CCc2c(c3cc(C#N)ccc3n2Cc2cccc(Br)c2)C1` (stereo not drawn) [Example 86] registered an inhibition constant Ki in test [1] of 2.6 nM. This compound also gave a concentration giving a half-maximal response (EC50) in test [2] of 36.3 nM. Also, the Emax in test [2] (setting [3]) is 93.9%.

With `CC(C)C(=O)NC1CCc2c(c3c(F)c(C#N)ccc3n2Cc2cccc(F)c2)C1` (stereo not drawn) [Example 116, N-[6-Cyano-5-fluoro-9-(3-fluoro-benzyl)-2,3,4,9-tetrahydro-1H-carbazol-3-yl]-isobutyramide], the inhibitory constant (Ki) in test [1] was found to be 3.4 nM. The compound also showed a concentration for a half-maximal effect (EC50) in test [2] of 2.7 nM. Also, the Emax in test [2] (setting [3]) was 78.3%.

For the compound `Cc1cccc(Cn2c3c(c4cc(Cl)ccc42)CC(NC(=O)C(C)C)CC3)c1` (stereo not drawn) [Example 82], the inhibition constant (Ki) in test [1] amounted to 6.1 nM. For the same compound, the concentration giving a half-maximal response (EC50) in test [2] stood at 37.1 nM. The Emax in test [2] (setting [3]) stood at 87.3%.

`COc1ccc2c(c1)c1c(n2Cc2ccncc2)CCC(NC(=O)C(C)C)C1` (stereo not drawn) [Example 145] gave an inhibition constant Ki in test [1] of 1400 nM. This compound also showed a 50% effective concentration (EC50) in test [2] of 2050 nM. In addition, the Emax in test [2] (setting [3]) is 46.6%.

Take `CC(C)C(=O)NC1CCc2c(c3cc(C#N)ccc3n2Cc2ccsc2)C1` (stereo not drawn) [Example 157, N-(6-Cyano-9-thiophen-3-ylmethyl-2,3,4,9-tetrahydro-1H-carbazol-3-yl)-isobutyramide]: the Ki in test [1] (setting [4]) amounted to 5.2 nM. Further, the Emax in test [2] (setting [5]) is 72.3%. In test [2] (setting [6]), the EC50 was 3 nM.

In test [1], `COc1ccc2c(c1)c1c(n2Cc2ccccc2)CCC(NC(=O)C(C)C)C1` (stereo not drawn) [Example 67, N-(9-Benzyl-6-methoxy-2,3,4,9-tetrahydro-1H-carbazol-3-yl)-isobutyramide] came in with a Ki of 6.2 nM. In test [2], this compound had an EC50 of 18.6 nM. Also, in test [2] (setting [3]), the Emax came out at 96.9%.
